Measurements published in patent publication US4001230A, “3-(5-Nitroimidazol-2-yl)pyrazolo[3,4-d]pyrimidine compounds” (Eli Lilly and Company, priority 1975, dated 1977).
Read-outs that look alike come from different tables or passages of the source.

Columns and labels:
Aeromonas liquefaciens = assay: In vitro activity against fish bacterial pathogen, standard tube dilution test (MIC); format: cell-based; conditions: Aeromonas hydrophila, read-out: minimum inhibitory concentration (MIC)
Procedure: (§1) The in vitro activity of certain of the novel compounds of this invention against two fish bacterial pathogens was determined using tryptose broth and the standard tube dilution test system. Doubling dilutions ranging from 100.0 to 0.78 mcg./ml. of each of the test compounds were prepared in 5 ml. amounts of tryptose broth. Each tube in the series was then inoculated with one drop from a 24-hour broth culture of either Pseudomonas sp. or a strain of Aeromonas liquefaciens. The tubes were incubated overnight at about 37° C., and the minimum inhibitory concentration (MIC) determined and recorded.
(§2) Column 1 lists the test compounds identified by their operating example number; column 2 lists the MIC for Pseudomonas sp.; and column 3 lists the MIC for Aeromonas liquefaciens.

Pseudomonas sp. = assay: as above; format: cell-based; conditions: tryptose broth, overnight, about 37° C., read-out: minimum inhibitory concentration (MIC)
Procedure: as §1, §2

Treponema hyodysenteriae = assay: In vitro activity against Treponema hyodysenteriae on blood agar plates (MIC); format: cell-based; conditions: for MIC: Brachyspira hyodysenteriae, 96 h, read-out: minimum inhibitory concentration (MIC); for inhibition of growth of the treponema: doubling dilutions 100 mcg./ml. to 0.39 mcg./ml.
Procedure: A number of representative compounds, namely, 5b, 8, and 15b, were tested for their in vitro activity against Treponema hyodysenteriae. The treponema were propagated on blood agar plates. Each plate which was prepared contained 20 ml. of trypticase soy agar (Baltimore Biological Laboratory [BBL]) with 5.0 g./l. of yeast extract (Difco) and 5 percent sterile defibrinated horse blood. The plates were sterile plastic 15 × 100 mm. petri plates. Incubation was carried out at 37° C. for 4 days under anaerobic conditions using the BBL Gas Pak system.
The concentrations of test compounds in this initial test were prepared in dilutions ranging from 2000 mcg./ml. to 7.8 mcg./ml. The test procedure was carried out in the following manner. Five ml. of a twenty-fold concentration in tryptose broth (Difco) of each filter-sterilized test compound dilution was mixed in a series of flasks containing 90 ml. of melted trypticase soy agar with yeast extract. Five ml. of horse blood was then added per flask. The contents of these flasks were then used to prepare a series of blood agar plates in doubling decreasing dilutions ranging from 100 mcg./ml. to 0.39 mcg./ml.
The treponema for inoculation of these plates were obtained by adding 3.0 ml. of sterile tryptose broth to the surface of a plate on which the treponema had been propagated. A sterile cotton-tipped swab was used to loosen the treponema from the agar. […] The inoculum was spread so that it covered the surface of each plate, a bent sterile plastic pipette being used for this purpose for each plate. The plates were incubated at about 36° C. for about 4 days and then examined for growth of the treponema. The minimum inhibitory concentration (MIC) of each test compound was the concentration that prevented growth of treponema.

Pasteurella multocida = assay: Efficacy against Pasteurella multocida infections in mice when administered by injection; format: in vivo, Female Swiss mice; conditions: for responders at 2.5 mg/kg / responders at 5 mg/kg: Pasteurella multocida, ip, read-out: Survival ratio (mice surviving / mice tested) (converted)
Procedure: The efficacy of the novel compounds against Pasteurella multocida infections in mice when administered by injection was studied.
Female Swiss mice weighing from 15 to about 20 g. were used. The test compound, 5.0 mg., was weighed out and dissolved in 0.5 ml. of dimethyl sulfoxide, and this solution was added to 9.5 ml. of sodium carboxymethylcellulose suspension. Groups of five mice each were injected intraperitoneally with 0.1 ml. each of the above-prepared test composition. This preparation gave a test rate of 2.5 mg. per kilo of body weight of mouse. The compounds were tested at 1.25, 2.5, or 5.0 per kilogram of body weight of mouse, and the test preparations for the rates of 1.25 and 5.0 mg./kg. were prepared in a similar manner. Immediately after receiving the test compound, the mice were challenged using log10 dilutions of 10^-^4, 10^-^5 and 10^-^6,of a 16 to 20-hour tryptose broth culture of Pasteurella multocida at 0.1 ml. per mouse subcutaneously. Similar groups of nontreated control mice were also challenged, the challenge being administered subcutaneously. The groups of mice were observed daily for mortality and the total mortality in treated groups compared with that which occurred in the nonmedicated control groups. Each test compound is identified by the number of the example describing its preparation.
In the chart, column 1 lists the test compound; column 2, the dosage of test compound in mg./kg. of mouse body weight; column 3, the dilution of the challenge organism; and column 4, the ratio of the number of mice surviving the test at each dosage and challenge dilution to the number of mice tested at each dosage and challenge dilution, called the survival ratio.

[1] = Aeromonas liquefaciens, tryptose broth, overnight, about 37° C.
[2] = 2.5 mg./kg. intraperitoneal, challenge dilution 10^-^4 subcutaneous
[3] = 2.5 mg./kg. intraperitoneal, challenge dilution 10^-^5 subcutaneous
[4] = 2.5 mg./kg. intraperitoneal, challenge dilution 10^-^6 subcutaneous
[5] = 5.0 mg./kg. intraperitoneal, challenge dilution 10^-^4 subcutaneous
[6] = 5.0 mg./kg. intraperitoneal, challenge dilution 10^-^5 subcutaneous
[7] = 5.0 mg./kg. intraperitoneal, challenge dilution 10^-^6 subcutaneous

SMILES	responders at 5 mg/kg (Pasteurella multocida; [5]) [%]	responders at 5 mg/kg (Pasteurella multocida; [6]) [%]	responders at 5 mg/kg (Pasteurella multocida; [7]) [%]	also measured
Cn1c([N+](=O)[O-])cnc1-c1nn(C)c2ncn(CCN3CCOCC3)c(=N)c12 [Example 15b, 4,5-Dihydro-4-imino-1-methyl-3-(1-methyl-5-nitroimidazol-2-yl)-5-(2-morpholinoethyl)-1H-pyrazolo[3,4-d]-pyrimidine diphosphate]				MIC (Aeromonas liquefaciens; [1]): 50 µg/mL; MIC (Pseudomonas sp.): 1.56 µg/mL; MIC (Treponema hyodysenteriae; blood agar plates, about 36° C., about 4 days): ≤ 1.56 µg/mL; inhibition of growth of the treponema (Treponema hyodysenteriae): inhibited growth of the treponema at each of the levels tested
CCn1cnc2c(c(-c3ncc([N+](=O)[O-])n3C)nn2C)c1=N [Example 7, 5-Ethyl-4,5-dihydro-4-imino-1-methyl-3-(1-methyl-5-nitroimidazol-2-yl)-1H-pyrazolo[3,4-d]pyrimidine]	40	70	100	responders at 2.5 mg/kg (Pasteurella multocida; [2]): 20%; responders at 2.5 mg/kg (Pasteurella multocida; [3]): 40%; responders at 2.5 mg/kg (Pasteurella multocida; [4]): 60%
Cn1c([N+](=O)[O-])cnc1-c1nn(C)c2nc(C(F)(F)F)[nH]c(=O)c12 [Example 12, 1,5-Dihydro-1-methyl-3-(1-methyl-5-nitroimidazol-2-yl)-6-(trifluoromethyl)-4H-pyrazolo[3,4-d]pyrimidin-4-one]	20	20	0	
CC(=O)Nc1ncnc2c1c(-c1ncc([N+](=O)[O-])n1C)nn2C [Example 11, N-[1-Methyl-3-(1-methyl-5-nitroimidazol-2-yl)-1H-pyrazolo[3,4-d]-pyrimidin-4-yl]acetamide]	0	0	20	
CCOC(Cn1cnc2c(c(-c3ncc([N+](=O)[O-])n3C)nn2C)c1=N)OCC [Example 14, 4-Imino-1-methyl-3-(1-methyl-5-nitroimidazol-2-yl)-1H-pyrazolo-[3,4-d]pyrimidine-5(4H)-acetaldehyde, diethyl acetal]	0	20	40	
CCCn1cnc2c(c(-c3ncc([N+](=O)[O-])n3C)nn2C)c1=N.O=[N+]([O-])O [Example 5b, 4,5-Dihydro-4-imino-1-methyl-3-(1-methyl-5-nitroimidazol-2-yl)-5-propyl-1H-pyrazolo[3,4-d]pyrimidine mononitrate]				MIC (Aeromonas liquefaciens): 25 µg/mL; MIC (Pseudomonas sp.): 3.12 µg/mL; MIC (Treponema hyodysenteriae): ≤ 1.56 µg/mL; inhibition of growth of the treponema (Treponema hyodysenteriae): inhibited growth of the treponema at each of the levels tested
Cn1c([N+](=O)[O-])cnc1-c1nn(C)c2ncnc(NN)c12.O=P(O)(O)O [Example 9a, 4-hydrazino-1-methyl-3-(1-methyl-5-nitroimidazol-2-yl)-1H-pyrazolo[3,4-d]-pyrimidine monophosphate]				MIC (Aeromonas liquefaciens; [1]): 25 µg/mL; MIC (Pseudomonas sp.): 0.78 µg/mL
Cn1c([N+](=O)[O-])cnc1-c1nn(C)c2ncnc(N)c12 [Example 4, 4-Amino-1-methyl-3-(1-methyl-5-nitroimidazol-2-yl)-1H-pyrazolo-[3,4-d]pyrimidine]		50	50	Survival ratio (mice surviving / mice tested) (Pasteurella multocida; [5]): 4/10
CCCn1cnc2c(c(-c3ncc([N+](=O)[O-])n3C)nn2C)c1=N [Example 5, 4,5-Dihydro-4-imino-1-methyl-3-(1-methyl-5-nitroimidazol-2-yl)-5-propyl-1H-pyrazolo[3,4-d]pyrimidine]	30	60	90	
Cn1c([N+](=O)[O-])cnc1-c1nn(C)c2ncnc(NN)c12 [Example 9, 4-Hydrazino-1-methyl-3-(1-methyl-5-nitroimidazol-2-yl)-1H-pyrazolo[3,4-d]pyrimidine]	100	80	90	
CN(C)CCn1cnc2c(c(-c3ncc([N+](=O)[O-])n3C)nn2C)c1=N.Cl.Cl [Example 8g, 5-[2-(dimethylamino)-ethyl]-4,5-dihydro-4-imino-1-methyl-3-(1-methyl-5-nitroimidazol-2-yl)-1H-pyrazolo[3,4-d]pyrimidine dihydrochloride]				Survival ratio (mice surviving / mice tested) (Pasteurella multocida; [2]): 2/10; Survival ratio (mice surviving / mice tested) (Pasteurella multocida; [3]): 6/10; Survival ratio (mice surviving / mice tested) (Pasteurella multocida; [4]): 10/10; Survival ratio (mice surviving / mice tested) (Pasteurella multocida; [5]): 7/10; Survival ratio (mice surviving / mice tested) (Pasteurella multocida; [6]): 9/10; Survival ratio (mice surviving / mice tested) (Pasteurella multocida; [7]): 10/10
Cn1c([N+](=O)[O-])cnc1-c1nn(C)c2ncn(Cc3ccncc3)c(=N)c12 [Example 8d, 4,5-Dihydro-4-imino-1-methyl-3-(1-methyl-5-nitroimidazol-2-yl)-5-(4-pyridylmethyl)-1H-pyrazolo[3,4-d]pyrimidine]	100	100	100	
Cn1c([N+](=O)[O-])cnc1-c1nn(C)c2ncnc(NCC(=O)O)c12 [Example 6, N-[1-Methyl-3-(1-methyl-5-nitroimidazol-2-yl)-1H-pyrazolo[3,4-d]pyrimidin-4-yl]glycine]	20	20	20	
Cn1c([N+](=O)[O-])cnc1-c1nn(C)c2ncn(Cc3ccncc3)c(=N)c12 [Example 8k, 4,5-dihydro-4-imino-1-methyl-3-(1-methyl-5-nitroimidazol-2-yl)-5-(4-pyridylmethyl)-1H-pyrazolo[3,4-d]pyrimidine diphosphate]				MIC (Aeromonas liquefaciens; [1]): 50 µg/mL; MIC (Pseudomonas sp.): 0.78 µg/mL
Cl.Cn1c([N+](=O)[O-])cnc1-c1nn(C)c2ncnc(N)c12 [Example 4a, 4-amino-1-methyl-3-(1-methyl-5-nitroimidazol-2-yl)-1H-pyrazolo[3,4-d]pyrimidine hydrochloride]				Survival ratio (mice surviving / mice tested) (Pasteurella multocida; [5]): 7/10; Survival ratio (mice surviving / mice tested) (Pasteurella multocida; [6]): 7/10; Survival ratio (mice surviving / mice tested) (Pasteurella multocida; [7]): 7/10
CCN(CC)CCn1cnc2c(c(-c3ncc([N+](=O)[O-])n3C)nn2C)c1=N [Example 8a, 5-[2-(Diethylamino)ethyl]-4,5-dihydro-4-imino-1-methyl-3-(1-methyl-5-nitroimidazol-2-yl)-1H-pyrazolo[3,4-d]-pyrimidine]	40	20	100	
